“And” between values parts separate entries of the source, which are not always exact repeats. Equal values may be shown once. No end group written: not given here.

Test system in the first data set: not given
Assay: not given
To be noted: cited from earlier work.
Turning to RPPGFSPFR [BK, Bradykinin], the “half-life of BK in plasma” value is on record as “approximately 17 seconds”.

In a further data set the target is T1, hB2 receptor (Homo sapiens, UniProt P30411).
T1 construct: host or cells: CHO-K1
T1 sequence (P30411 1-391): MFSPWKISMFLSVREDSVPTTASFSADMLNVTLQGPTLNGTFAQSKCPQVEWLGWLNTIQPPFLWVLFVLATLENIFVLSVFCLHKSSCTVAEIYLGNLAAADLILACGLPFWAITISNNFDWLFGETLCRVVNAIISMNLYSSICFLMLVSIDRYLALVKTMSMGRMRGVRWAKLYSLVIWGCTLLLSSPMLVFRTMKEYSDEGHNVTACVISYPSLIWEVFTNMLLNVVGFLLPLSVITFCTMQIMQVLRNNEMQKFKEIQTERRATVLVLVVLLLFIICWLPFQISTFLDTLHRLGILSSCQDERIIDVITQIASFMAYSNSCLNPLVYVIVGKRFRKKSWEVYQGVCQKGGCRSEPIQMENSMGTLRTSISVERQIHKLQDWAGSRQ
The data set can be described thus: In vitro Assay of hB2 Receptor Function using Calcium Flux. The format is cell-based. To be noted: recombinant CHO cells, antagonist IC50 against agonist at EC80. As to the method:
In vitro Assay of hB2 Receptor Function using Calcium Flux The intracellular calcium flux induced by hB2 receptor activation was analyzed using an hB2 recombinant cell line (CHO-K1) purchased from PerkinElmer (Catalog Number: RBHB2C000EA) on a fluorometric imaging plate reader (FLIPR). […] Culture medium was changed every other day. 24 h prior to the FLIPR assay, the hB2/CHO cells were washed once with PBS (Invitrogen) and 10 mL of Versene (1:5000, Invitrogen, Cat# 15040-066) was added to each flask. After 5 min incubation at 37° C., Versene was removed and cells were detached from the flask and resuspended in culture medium. Cells were counted and 25,000 cells/well were plated in 96-well black-sided clear bottom assay plates (Costar #3904). Cells were incubated in a 37° C. CO2 incubator overnight. The media was aspirated from the cells and replaced with 65 μL of dye-loading buffer. The loading buffer was prepared by diluting a stock solution of 0.5 mM Fluo-4 AM (Molecular Probes, dissolved in DMSO containing 10% [w/v] pluronic acid) to a concentration of 1 μM in Clear Dulbecco's Modified Eagle Medium (DMEM) containing 0.1% BSA, 20 mM HEPES, and 2.5 mM probenecid. The cells were dye-loaded for 1 h at RT. The excess dye was removed by washing the cells 2× with assay buffer. The assay buffer consists of Hank's Balanced Salt Solution (HBSS) containing 20 mM HEPES, 0.1% BSA, and 2.5 mM probenecid. After the wash cycles, a volume of 100 μL was left in each well, and the plate was ready to be assayed in the FLIPR System. […] The cell plate and the compound plates were loaded onto the FLIPR and during the assay, fluorescence readings are taken simultaneously from all 96 wells of the cell plate. Ten 1-second readings were taken to establish a stable baseline for each well, then 25 μL from the B1 antagonist plate was rapidly (50 μL/sec.) added. The fluorescence signal was measured in 1-second (1 min) followed by 6-second (2 min) intervals for a total of 3 min to determine if there is any agonist activity with the compounds.
As for “N-((3R)-1-(1-methylethyl)-3-piperidinyl)-2-((2R)-1-((4-methylphenyl)sulfonyl)-3-oxo-1,2,3,4-tetrahydro-2-pyrazinyl)acetamide; and N-((3S)-1-(1-methylethyl)-3-piperidinyl)-2-((2R)-1-((4-methylphenyl)sulfonyl)-3-oxo-1,2,3,4-tetrahydro-2-pyrazinyl)acetamide [T-1-11]”, the IC50 stood at 0.53 µM.

With `Cc1ccc(S(=O)(=O)N2C=CNC(=O)[C@H]2CC(=O)NC2CCC(NC3CC3)CC2(C)C)cc1` (mixture of isomers) [T-1-43], the IC50 came out at 0.014 µM. As for `Cc1cc(S(=O)(=O)N2C=CNC(=O)[C@H]2CC(=O)N2CCC(N3CCCCC3)CC2)c(C)cc1Cl` [T-3-8, (3R)-3-(2-(1,4′-bipiperidin-1′-yl)-2-oxoethyl)-4-((4-chloro-2,5-dimethylphenyl)-sulfonyl)-3,4-dihydro-2(1H)-pyrazinone], the IC50 was determined as 0.27 µM. Still for that read-out and setting: the same measure for “N-((4S)-1-cyclopropyl-3,3-dimethyl-4-piperidinyl)-2-((2R)-1-((4-methylphenyl)-sulfonyl)-3-oxo-1,2,3,4-tetrahydro-2-pyrazinyl)acetamide; and N-((4R)-1-cyclopropyl-3,3-dimethyl-4-piperidinyl)-2-((2R)-1-((4-methylphenyl)-sulfonyl)-3-oxo-1,2,3,4-tetrahydro-2-pyrazinyl)acetamide [T-1-45]”: 0.001 µM. In the case of `Cc1ccc(S(=O)(=O)N2C=CNC(=O)[C@H]2CC(=O)N[C@H]2CC[C@@H](N)CC2)cc1` [T-1-31, N-(cis-4-aminocyclohexyl)-2-((2R)-1-((4-methylphenyl)sulfonyl)-3-oxo-1,2,3,4-tetrahydro-2-pyrazinyl)acetamide], the IC50 is 0.047 µM.

With `Cc1ccc(S(=O)(=O)N2C=CNC(=O)[C@H]2CC(=O)NC2CC(=O)OC(C)(C)C2)cc1` (mixture of isomers) [T-1-67, N-((4RS)-2,2-dimethyl-6-oxotetrahydro-2H-pyran-4-yl)-2-((2R)-1-((4-methylphenyl)sulfonyl)-3-oxo-1,2,3,4-tetrahydro-2-pyrazinyl)acetamide], the IC50 came out at 2.2 µM. In the case of `Cc1ccc(S(=O)(=O)N2C=CNC(=O)[C@H]2CC(=O)NC2CCN(C(=O)OC(C)(C)C)CC2(C)C)cc1` (mixture of isomers) [T-1-15, 1,1-dimethylethyl (4R)-3,3-dimethyl-4-((((2R)-1-((4-methylphenyl)sulfonyl)-3-oxo-1,2,3,4-tetrahydro-2-pyrazinyl)acetyl)amino)-1-piperidinecarboxylate; and 1,1-dimethylethyl (4S)-3,3-dimethyl-4-((((2R)-1-((4-methylphenyl)sulfonyl)-3-oxo-1,2,3,4-tetrahydro-2-pyrazinyl)acetyl)amino)-1-piperidinecarboxylate], the IC50 was 0.15 µM and 0.43 µM. On the same count and under the same terms, the same measure for `Cc1cc(S(=O)(=O)N2C=CNC(=O)[C@H]2CC(=O)N2CCC3(CCN(C4CC4)C3)C2)c(C)cc1Cl` (stereo partly drawn) [T-3-38, (3R)-4-((4-chloro-2,5-dimethylphenyl)sulfonyl)-3-(2-(7-cyclopropyl-2,7-diazaspiro[4.4]non-2-yl)-2-oxoethyl)-3,4-dihydro-2(1H)-pyrazinone]: 0.0051 µM. Same read-out and setting: the same measure for `Cc1ccc(S(=O)(=O)N2C=CNC(=O)[C@H]2CC(=O)N2CCCC2c2ccccc2)cc1` (stereo partly drawn) [T-3-43, (3R)-4-((4-methylphenyl)sulfonyl)-3-(2-oxo-2-(2RS-phenyl-1-pyrrolidinyl)ethyl)-3,4-dihydro-2(1H)-pyrazinone]: 2.6 µM. The same measure, in the same setting: under `CC(=O)N1CCC(NC(=O)C[C@@H]2C(=O)NC=CN2S(=O)(=O)c2ccc(C)cc2)C(C)(C)C1` (stereo partly drawn) [T-1-18, N-(1-acetyl-3,3-dimethyl-4-piperidinyl)-2-((2R)-1-((4-methylphenyl)sulfonyl)-3-oxo-1,2,3,4-tetrahydro-2-pyrazinyl)acetamide] stands 0.015 µM; under `Cc1ccc(S(=O)(=O)N2C=CNC(=O)[C@H]2CC(=O)N2CCCC2c2ccc(Cl)cc2)cc1` (stereo partly drawn) [T-3-3, (3R)-3-(2-(2-(4-chlorophenyl)-1-pyrrolidinyl)-2-oxoethyl)-4-((4-methylphenyl)-sulfonyl)-3,4-dihydro-2(1H)-pyrazinone], 1 µM.

Broadly, the IC50 is the midpoint of a concentration-inhibition curve.
